# Active and inactive are the calls of the source. How the calls were made is not given here.
# System: Broad 7084-01 inhibitor HTS, set 2
# Assay: single-concentration hits, screen 7084 set 2 (AID 977613);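 further: host cells are infected with parasite promastigotes that become internalized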
row,Compound,active concentration
1,O=C(C[C@@H]1CC[C@H]2[C@@H](COC[C@@H](O)CN2Cc2cc(F)ccc2F)O1)NCc1ccc(F)cc1,> 10 µM (inactive)
2,CCCNC(=O)N1CC(=O)N2[C@@H](CO)[C@@H](c3ccc(C#CCC4CCCC4)cc3)[C@@H]2C1,> 10 µM (inactive)
3,C/C=C/c1ccc([C@@H]2[C@H](CO)N(C(=O)c3cnccn3)C23CN(C(C)=O)C3)cc1,> 10 µM (inactive)
4,COc1ccc2c3c([nH]c2c1)[C@H](CO)N(C)CC31CCN(C(=O)c2ccccc2F)CC1,> 10 µM (inactive)
5,COc1ccc(-c2ccc3c(c2)[C@@H]2[C@@H](CCN2C(=O)CN2CCOCC2)[C@@H](CO)N3)cc1,> 10 µM (inactive)
6,O=C(c1cnccn1)N1CC(=O)N2[C@H](CO)[C@@H](c3ccc(C#CC4CC4)cc3)[C@H]2C1,> 10 µM (inactive)
7,O=C(c1ccccc1F)N1CC[C@H]2[C@H](CO)Nc3ccc(Br)cc3[C@H]21,> 10 µM (inactive)
8,COc1ccc2c3c([nH]c2c1)[C@H](CO)N(C(=O)Nc1ccc(F)cc1)CC31CCN(CC2CCOCC2)CC1,> 10 µM (inactive)
9,COC(=O)[C@H]1[C@H](CO)[C@H]2Cn3c(ccc(C4=CCCCC4)c3=O)[C@H]2N1Cc1ccc2c(c1)OCO2,> 10 µM (inactive)
10,N#C[C@@H]1[C@@H](c2ccccc2C2=CCCCC2)[C@@H](CO)N1C(=O)c1cccc(F)c1,> 10 µM (inactive)
11,CCC(=O)N1CC2(C1)[C@@H](c1ccc(-c3cccc(C)c3)cc1)[C@@H](CO)N2S(C)(=O)=O,> 10 µM (inactive)
12,C/C=C/c1ccc([C@@H]2[C@H](CO)N3C(=O)CN(Cc4ccc(F)cc4)C[C@@H]23)cc1,> 10 µM (inactive)
13,O=C(Nc1ccc(-c2ccccc2)cc1)[C@@H]1[C@@H](CO)[C@@H]2Cn3c(cccc3=O)[C@H]1N2Cc1ccncc1,> 10 µM (inactive)
14,O=S(=O)(c1ccccc1)N1CCCCN2[C@H](CO)[C@H](c3ccc(C#CC4CCCC4)cc3)[C@@H]2C1,> 10 µM (inactive)
15,O=C(C[C@@H]1CC[C@H]2[C@@H](COC[C@@H](O)CN2C(=O)Nc2ccc(Cl)cc2)O1)NCC1CC1,> 10 µM (inactive)
16,COc1ccc2c3c(n(C)c2c1)[C@@H](CO)NCC31CCN(Cc2cc(F)ccc2F)CC1,> 10 µM (inactive)
17,COc1ccc2c3c([nH]c2c1)[C@@H](CO)N(S(C)(=O)=O)CC31CCN(C(=O)Nc2ccccc2)CC1,> 10 µM (inactive)
18,O=C(C1CCCCC1)N1CC(=O)N2[C@@H](CO)[C@@H](c3ccc(-c4ccccc4F)cc3)[C@@H]2C1,> 10 µM (inactive)
19,CN1C(=O)c2cc(NC(=O)c3cccc(F)c3)ccc2OC[C@H]2O[C@H](CC(=O)NCC3CCCCC3)CC[C@@H]21,> 10 µM (inactive)
20,CCS(=O)(=O)N1CC(=O)N2[C@H](C1)[C@@H](c1ccc(C#CC3CCCCC3)cc1)[C@@H]2CO,> 10 µM (inactive)
21,O=C(C[C@@H]1CC[C@H]2[C@@H](COC[C@H](O)CN2CC2CCOCC2)O1)NCC1CCCCC1,> 10 µM (inactive)
22,CCS(=O)(=O)N1CC2(C1)[C@@H](c1ccccc1)[C@@H](CO)N2C(=O)c1ccccc1,> 10 µM (inactive)
23,CCN1CC(=O)N2[C@H](CO)[C@@H](c3ccc(Br)cc3)[C@H]2C1,> 10 µM (inactive)
24,COC(=O)[C@@H]1[C@@H](CO)[C@@H]2Cn3c(ccc(C4=CCCC4)c3=O)[C@@H]2N1C(=O)Cc1cccnc1,> 10 µM (inactive)

row,Compound,active concentration
1,O=C(Nc1ccccc1)N1CC(=O)N2[C@@H](CO)[C@@H](c3ccc(C#CC4CCCCC4)cc3)[C@@H]2C1,> 10 µM (inactive)
2,Cc1noc(C)c1NC(=O)N1C[C@H](O)COC[C@H]2O[C@@H](CC(=O)NCC3CCCCC3)CC[C@@H]21,> 10 µM (inactive)
3,O=S(=O)(c1ccccc1F)N1CC[C@@H]2[C@H]1c1cc(-c3ccccc3F)ccc1N[C@@H]2CO,> 10 µM (inactive)
4,O=C(C[C@H]1CC[C@@H]2[C@H](COC[C@@H](O)CN2S(=O)(=O)c2ccccc2)O1)Nc1ccccc1,> 10 µM (inactive)
5,CN(C)CC(=O)N1[C@@H](CO)[C@@H](c2ccccc2)C12CN(Cc1cc(F)ccc1F)C2,> 10 µM (inactive)
6,CC(C)CC#Cc1ccc([C@H]2[C@H]3CN(S(=O)(=O)c4cccc(F)c4)CC(=O)N3[C@H]2CO)cc1,> 10 µM (inactive)
7,O=C(C[C@H]1CC[C@@H]2[C@H](COC[C@H](O)CN2C(=O)c2ccccc2F)O1)NCc1ccccc1,> 10 µM (inactive)
8,CC=Cc1ccc2n(c1=O)C[C@H]1[C@H](CO)[C@@H](C(=O)Nc3ccc(-c4ccccc4)cc3)[C@@H]2N1C(=O)CC (mixture of isomers),> 10 µM (inactive)
9,N#C[C@H]1[C@H](c2ccccc2-c2ccc(F)cc2)[C@@H](CO)N1C(=O)Cc1cccnc1,> 10 µM (inactive)
10,CC(C)(O)C#Cc1ccc([C@@H]2[C@H](CO)N3CCCCN(S(C)(=O)=O)C[C@@H]23)cc1,> 10 µM (inactive)
11,Cn1cnc(CCNC(=O)C[C@H]2CC[C@H]3[C@@H](COC[C@H](O)CN3C(=O)C3CC3)O2)c1,> 10 µM (inactive)
12,COc1ccccc1CNC(=O)C[C@@H]1CC[C@@H]2[C@H](COC[C@@H](O)CN2C(=O)Nc2ccccc2)O1,> 10 µM (inactive)
13,CCCC#Cc1ccc([C@H]2[C@@H](CO)N3C(=O)CN(S(=O)(=O)c4ccccc4C)C[C@H]23)cc1,> 10 µM (inactive)
14,COc1ccccc1C(=O)Nc1ccc2c(c1)C(=O)N(C)[C@@H]1CC[C@H](CC(=O)NCCc3ccncc3)O[C@@H]1CO2,> 10 µM (inactive)
15,OC[C@@H]1[C@@H](c2ccccc2)C2(CN(Cc3nccs3)C2)N1CCC(F)(F)F,> 10 µM (inactive)
16,COCC(=O)N1[C@H](CO)[C@H]2c3ccccc3NC[C@H]21,> 10 µM (inactive)
17,COc1ccc2c3c([nH]c2c1)[C@H](CO)N(C(=O)C1CCOCC1)CC31CN(C(=O)NC(C)C)C1,> 10 µM (inactive)
18,O=C(C[C@@H]1CC[C@H]2[C@@H](COC[C@H](O)CN2Cc2ccccc2)O1)NCCc1ccccc1,> 10 µM (inactive)
19,COCC(=O)N1[C@H](CO)[C@H](c2ccccc2-c2ccc(C)cc2)[C@@H]1C#N,> 10 µM (inactive)
20,C/C=C/c1ccc([C@H]2[C@@H](CO)N3C(=O)CN(S(=O)(=O)c4ccccc4)C[C@@H]23)cc1,> 10 µM (inactive)
21,CN1C(=O)c2cc(NS(C)(=O)=O)ccc2OC[C@H]2O[C@H](CC(=O)N3CCOCC3)CC[C@H]21,> 10 µM (inactive)
22,CN(C)C(=O)C[C@@H]1CC[C@H]2[C@@H](COC[C@@H](O)CN2CC2CC2)O1,> 10 µM (inactive)
23,O=C([C@H]1[C@H](CO)[C@H]2Cn3c(ccc(-c4ccccc4F)c3=O)[C@@H]1N2C(=O)C1CCC1)N1CCCCC1,> 10 µM (inactive)
24,O=C(C1CCC1)N1CC2(C1)[C@H](c1ccccc1)[C@H](CO)N2C(=O)c1ccccn1,> 10 µM (inactive)

row,Compound,active concentration
1,COc1ccc2c3c(n(C)c2c1)[C@H](CO)N(S(=O)(=O)c1ccc(C)cc1)CC31CCN(C)CC1,> 10 µM (inactive)
2,COc1ccc(-c2ccccc2[C@@H]2[C@@H](CO)N(C(=O)NC(C)C)[C@H]2C#N)cc1,> 10 µM (inactive)
3,COc1ccc(CN2[C@H](CO)[C@H]3c4ccccc4N(C(=O)Nc4ccc(F)cc4)C[C@H]32)cc1,> 10 µM (inactive)
4,Cc1ccc(NC(=O)Nc2ccc3c(c2)C(=O)N(C)[C@@H]2CC[C@H](CC(=O)NCC(F)(F)F)O[C@@H]2CO3)cc1,> 10 µM (inactive)
5,N#C[C@@H]1[C@H](c2ccccc2C2=CCCCC2)[C@H](CO)N1S(=O)(=O)c1cccc(F)c1,> 10 µM (inactive)
6,N#C[C@H]1[C@@H](c2ccccc2C2=CCCC2)[C@H](CO)N1S(=O)(=O)c1ccccc1,> 10 µM (inactive)
7,COc1ccc(-c2ccc3c(c2)[C@@H]2[C@@H](CCN2C(=O)CN2CCOCC2)[C@H](CO)N3)cc1,> 10 µM (inactive)
8,O=S(=O)(Cc1ccccc1)N1[C@H](CO)[C@@H](c2ccccc2)C12CN(CCC(F)(F)F)C2,> 10 µM (inactive)
9,O=C(C1CCOCC1)N1CC(=O)N2[C@@H](CO)[C@H](c3ccc(-c4cccnc4)cc3)[C@@H]2C1,> 10 µM (inactive)
10,CCS(=O)(=O)N1CC(=O)N2[C@H](CO)[C@@H](c3ccc(C#CC4CCCCC4)cc3)[C@H]2C1,> 10 µM (inactive)
11,O=C(C[C@H]1CC[C@H]2[C@@H](COC[C@H](O)CN2S(=O)(=O)c2ccc(F)cc2)O1)NCC1CC1,> 10 µM (inactive)
12,C/C=C/c1ccc([C@H]2[C@H](CO)N(S(=O)(=O)Cc3ccccc3)C23CN(C(=O)C2CCCC2)C3)cc1,> 10 µM (inactive)
13,COc1cccc(-c2ccc3c(c2)[C@H]2[C@H](CCN2S(=O)(=O)c2ccccc2C)[C@@H](CO)N3)c1,> 10 µM (inactive)
14,COc1ccccc1S(=O)(=O)N1CC[C@@H]2[C@H]1c1cc(-c3ccc(C#N)cc3)ccc1N[C@@H]2CO,> 10 µM (inactive)
15,CCCNC(=O)N1CC2(CN(C(=O)Cc3cccnc3)C2)c2c([nH]c3cc(OC)ccc23)[C@H]1CO,> 10 µM (inactive)
16,O=C(c1cnccn1)N1CC[C@@H]2[C@H](CO)Nc3ccc(-c4ccccc4F)cc3[C@@H]21,> 10 µM (inactive)
17,CC(C)C#Cc1ccc([C@H]2[C@H](CO)N3C(=O)CN(C(=O)Cc4ccccc4)C[C@@H]23)cc1,> 10 µM (inactive)
18,O=C(C[C@@H]1CC[C@@H]2[C@H](COC[C@H](O)CN2CC2CCOCC2)O1)NCC1CCCCC1,> 10 µM (inactive)
19,O=C(C1CCC1)N1CC2(C1)[C@H](c1ccccc1)[C@H](CO)N2Cc1cccnc1,> 10 µM (inactive)
20,CC(C)C#Cc1ccc([C@@H]2[C@@H](CO)N3C(=O)CN(C(=O)Cc4ccccc4)C[C@H]23)cc1,> 10 µM (inactive)
21,O=C(NCC(F)(F)F)[C@H]1[C@H](CO)[C@H]2Cn3c(cccc3=O)[C@H]2N1Cc1cccc(F)c1,> 10 µM (inactive)
22,O=C(C[C@H]1CC[C@@H]2[C@H](COC[C@@H](O)CN2S(=O)(=O)c2cccc(F)c2)O1)Nc1ccc(-c2ccccc2)cc1,> 10 µM (inactive)

# Reference: PubChem BioAssay AID977613 (Broad Institute, 2014)
